Data set [1] is described as follows: In situ transcardiac brain perfusion: brain/perfusate ratio at 1 min in 2-, 8-, 12- and 24-month-old mice. The class given is in vivo, C57BL/6J mice. Particulars: for decrease of [14C]DHA brain/perfusate ratio: 1 min perfusion at 2 mL/min.
Experimental: (§1) Brain uptake of DHA was assessed in mice using an in situ transcardiac brain perfusion technique. […] The [1-^14C]DHA as NE-DHA (American Radiolabeled Chemicals, St. Louis, MO, USA; ARC0380), [^3H]mannitol (PerkinElmer, Waltham, MA, USA, NET101) and [^14C]sucrose (PerkinElmer, Waltham, MA, USA; NEC100X) were diluted to concentrations of 0.1 μCi/mL (DHA and sucrose) and 0.2 μCi/mL (mannitol) in a physiological buffer containing 141 mM NaCl (Sigma, St. Louis, MO, USA; 28–2270–5), 4 mM KCl (Wako, Osaka, Japan; 163–03545), 2.8 mM CaCl2 (Sigma; 05–0580), 1 mM MgSO4·7H2O (Kishida Chemical Co., Ltd., Osaka, Japan; 000–46905), 1 mM NaH2PO4·2H2O (Wako; 192–02815), 10 mM d-glucose (Wako; 041–00595), and 10 mM 4-(2-hydroxyethyl)-1-piperazineethanesulfonic acid (HEPES; Sigma; H4034); pH 7.4. In a competition assay, unlabeled NE-DHA (Sigma; D2534-100MG) was added to the perfusate (final concentration of unlabeled DHA: 100 μM) before infusion. Ethanol (Nacalai Tesque, Kyoto, Japan; 14713–95) was added to an equal volume of unlabeled DHA to the perfusate (final ethanol concentration: 0.001%) as the vehicle control.
(§2) Mice were anesthetized using an intraperitoneal injection of 25% urethane (Sigma; 94300). The heart was exposed, the left jugular vein was severed, and the descending aorta was ligated. Perfusate containing [^14C]DHA, [^3H]mannitol, or [^14C]sucrose was then infused into the left ventricle of the heart at a rate of 2 mL/min for 0.5 to 1.5 min using a 27 gauge butterfly needle. In the uptake experiment for aged mice, the perfusate was infused for 1 min. After perfusion, the brain was removed, dissected into six regions (the olfactory bulb, forebrain, cortex, hippocampus, thalamus and hypothalamus, and cerebellum), and weighed. Each brain region was mixed with 1 mL of tissue solubilizer (Solvable™; PerkinElmer; 6NE9100) and incubated at 60°C for 24 h. Samples were prepared for scintillation counting by the addition of 0.2 mL H2O2 (Sigma; 13-1910-5) and 10 mL of liquid scintillation cocktail (Pico-Fluor Plus; PerkinElmer; 6013699). The radioactivity in the samples was then measured using a liquid scintillation counter (Packard 2250CA; PerkinElmer). Brain/perfusate ratios were calculated by dividing the radioactivity in 1 g of brain tissue by the radioactivity in an mL of perfusate. Whole brain values were calculated by dividing the total radioactivity in each brain region by the total weight of each brain region. The unidirectional influx rate (Ki) was determined by the linear portion of the slope in the plot of brain/perfusate ratio against perfusion time.
A short description of data set [2]: In situ transcardiac brain perfusion competition assay with excess unlabeled DHA: brain uptake rate (Ki) in 2-month-old mice.
Experimental: as §1, §2
Results are expressed as the mean ± standard error of the mean (SEM). Statistical analyses were performed using GraphPad Prism 8.0 (GraphPad, San Diego, CA, USA). […]
Data set [3] has as its system rat brain endothelial cells (RBECs). Briefly: Cellular uptake of [14C]DHA by primary rat brain endothelial cells. Type of data set: cell-based. Here is the method: The method of primary culture of rat brain endothelial cells (RBECs) is previously described. The meninges and white matter were carefully removed from the forebrains, and the gray matter was minced using a scalpel and enzymatic digestion by DMEM (Wako; 048–29763), including collagenase type 2 (1 mg/mL, Worthington, Lakewood, NJ, USA; CLS2) for 75 min at 37°C with agitation in the water bath. After inactivation by adding cold DMEM, the suspension was centrifuged (1,000 × g, 8 min). The pellet was separated by centrifugation in 20% BSA, (Wako, 011–27055)—DMEM (1,000 × g, 20 min). The pellet containing microvessels were further digested with DMEM including collagenase/dispase (1 mg/mL, Roche, Mannheim, Germany; 11097113001) for 20 min at 37°C with agitation in the water bath. After inactivation, microvessel clusters were separated on a 33% continuous Percoll (GE Healthcare, Buckinghamshire, UK; 17-5445-01) gradient, collected and plated on collagen type IV (0.1 mg/mL, Sigma; C5533) and fibronectin (0.075 mg/mL, Sigma; F1141-5MG) coated dishes. RBEC cultures were maintained in RBEC medium [DMEM/F12 (Wako; 042–30555) supplemented with 10% FBS (Biosera, Kansas, MO, USA; FB-1365/500), basic fibroblast growth factor (1.5 ng/mL, R&D, Minneapolis, MN, USA; 2099-FB-025), heparin (100 μg/mL, Sigma; H3149), insulin (5 μg/mL), transferrin (5 μg/mL), sodium selenite (5 ng/mL; insulin-transferrin-sodium selenite media supplement, Sigma; I1884), penicillin (100 units/mL), streptomycin (100 μg/mL; penicillin-streptomycin mixed solution, Nacalai Tesque; 09367–34) and gentamicin (50 μg/mL, Biowest, Riverside, MO, USA; L0012)] containing puromycin (4 μg/mL, Nacalai Tesque; 14861–84) at 37°C in a humidified atmosphere of 5% CO2/95% air, for three days and typically reached 70–80% confluency. […]
To measure the cellular uptake of DHA, RBECs cultured on a 24-well plate were incubated with 0.2 mL of physiological buffer containing 0.1 μCi/mL [^14C]DHA (incubation buffer) at 37°C for 30 s to 15 min. […] The total protein concentration in the cell lysates was determined using a Pierce™ BCA Protein Assay Kit. Samples were added to 10 mL of a liquid scintillation cocktail, then [^14C]DHA radioactivity in the cell lysate was measured using a liquid scintillation counter. The cellular uptake of [^14C]DHA by RBECs was expressed as cell/medium ratios calculated by dividing the radioactivity in one milligram of protein by the radioactivity in one microliter of the incubation buffer. The rate of cellular uptake was determined by the linear portion of the slope of the cell/medium ratios against the incubation time (0.5, 2, 5, and 10 min) graph.

The conditions of data set [4]: cited from earlier work.
Details of data set [5]: method as in PMID 33054801. Particulars: ref PMID 33054801; cited from earlier work.
The subject of data set [6] is bovine brain endothelial cells. On the set-up: method as in PMID: 9886086. Conditions: 2 h incubation; ref PMID: 9886086; cited from earlier work.
[7] abbreviates: co-infusion of an excess amount of DHA.
Where [8] appears, read: capillary depletion after a 40 s in situ brain perfusion, ref PMID: 19442696.

By inhibition is commonly meant the relative decrease from the control value, in per cent.

“Also recorded” adds a separate entry of the source.

As for `OC[C@@H](O)[C@@H](O)[C@H](O)[C@H](O)CO` [[^3H]mannitol, mannitol], the “effect of age on brain uptake of [3H]mannitol” value in data set [1] (each brain region, 2-, 8-, 12-, 24-month-old mice, 1 min) is listed as “no significant effects with age”. For the same compound, the “change in brain uptake (brain/perfusate ratio) of [3H]mannitol with age” value in data set [1] (whole brain, 2-, 8-, 12-, 24-month-old mice, 1 min) is on record as “No significant changes; also recorded: no significant differences”. Moreover, in data set [2] (setting [7]), the “Kin for [3H]mannitol” value is “not changed” and the “brain/perfusate ratio of [3H]mannitol” value was “increased”.

For the compound `CC/C=C\C/C=C\C/C=C\C/C=C\C/C=C\C/C=C\CCC(=O)O` [[^14C]DHA, Docosahexaenoic acid], the “difference of [14C]DHA brain/perfusate ratio” value in data set [1] (forebrain, 2 vs. 12 months old) worked out at 0.04489 mL/g; in data set [1] (forebrain, 2 vs. 24 months old), 0.05294 mL/g; in data set [1] (hippocampus, 2 vs. 12 months old), 0.03402 mL/g; in data set [1] (hippocampus, 2 vs. 24 months old), 0.06034 mL/g; in data set [1] (olfactory bulb, 2 vs. 24 months old), 0.04626 mL/g; in data set [1] (thalamus and hypothalamus, 2 vs. 12 months old), 0.04306 mL/g. For the same compound, the “difference of [14C]DHA brain/perfusate ratio” value in data set [1] (thalamus and hypothalamus, 2 vs. 24 months old) amounted to 0.05106 mL/g. For the same compound, the “decrease of [14C]DHA brain/perfusate ratio” value in data set [1] (whole brain, 12-month-old vs 2-month-old mice) is recorded as 0.03275 mL/g; in data set [1] (whole brain, 24-month-old vs 2-month-old mice) it was 0.03827 mL/g. Besides, the “rate of cellular uptake of [14C]DHA by RBECs” value in data set [3] (4°C) is listed as 19.98 μLmg protein^-1 min^-1; in data set [3] (37°C), 50.13 μLmg protein^-1 min^-1. In data set [3] (intact RBECs, 37°C), the “time at which cellular uptake of [14C]DHA by RBECs peaked” value worked out at 10 min. In addition, the “[14C]DHA detected in brain parenchymal fraction” value in data set [4] (setting [8]) is given as “more than 90%”. Also, the “[14C]DHA remaining in the endothelial cells of the brain vasculature” value in data set [4] (setting [8]) is “less than 10%”. Besides, the “[14C]DHA remaining in endothelial cells of the brain vasculature” value in data set [4] (capillary depletion after brain perfusion, ref 12 (printed [40])) is given as “less than 10%”. For the same compound, in data set [2] (2-month-old mice, perfusion at 2 mL/min), the “perfusion time at which brain uptake of [14C]DHA plateaued” value is 1.5 min.

Take `OC[C@@H](O)[C@@H](O)[C@H](O)[C@H](O)CO` [mannitol]: in data set [5], the “brain concentrations and Kin compared with sucrose” value was “higher”.

In the case of `CC/C=C\C/C=C\C/C=C\C/C=C\C/C=C\C/C=C\CCC(=O)O` [unlabeled DHA, Docosahexaenoic acid], the “effect on cellular uptake rate of [14C]DHA in rat brain endothelial cells” value in data set [3] (in the presence of unlabeled DHA, vs vehicle (Fig. F of response letter)) is “declined; also recorded: decreased”. Moreover, in data set [6], the “fate of non-esterified DHA taken up by brain endothelial cells” value was “mainly incorporated into phosphatidylcholine”. For the same compound, the inhibition at 100 µM in data set [2] (Mus musculus, read-out: extent of inhibition of the brain uptake rate of [14C]DHA) is roughly 50%.

The values are drawn from publication PMC9934487, “Aging decreases docosahexaenoic acid transport across the blood-brain barrier in C57BL/6J mice” (PLOS ONE, 2023).
